# How the values were obtained:
# [1] = test system: female antennae of sand fly Phlebotomus papatasi and mosquitoes Aedes aegypti, Anopheles gambiae, Anopheles stephensi; experiment: GC-EAD responses of sand fly and three mosquitoes to synthetic mixtures; conditions: about 100 ng of each compound, on one or more of the sand fly or the mosquitoes, FIGS. 9 and 10
# In short: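 Female antennae recorded by GC-EAD (split with FID) against synthetic mixtures with about 100 ng of each compound, 1-octen-3-ol as positive control; polar Innowax column, 50° C 2 min then 10° C/min to 240° C. Effluent in humidified air at 0.5 liter/min over severed-head preparation with Ringer-filled electrodes.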
# [2] = test system: Ae. aegypti and An. stephensi; experiment: K&D module bioassay, statements pooled for both mosquito species; type: in vivo, Aedes aegypti; Anopheles stephensi; conditions: DEET at 10 μg/cm^2, oxide and ketone at similar or lower dosages as DEET, oils at about 10 mg/d release
# Procedure: (§1) The bioassays were conducted with a six-cell in vitro K&D module system, as disclosed in Klun and Debboun, J. Med. Entomol. 37:177-181 (2000), loaded with an “artificial blood” (CPDA+ATP) solution.
# Clove essential oil, patchouli oil, and EAD-active potential repellents, β-caryophyllene, isocaryophyllene, (+)-longifolene, and their 1:1:1 mixture, plus α-guaiene, caryophyllene oxide, and a β-caryophyllene ketone, were tested using the six-cell in vitro K&D module system (Klun and Debboun, J. Med. Entomol. 37:177-181 (2000)) loaded with an “artificial blood” (CPDA+ATP) solution on both Ae. aegypti and An. stephensi in a dose-response fashion. The K&D in vitro assay system has three components: (1) a Plexiglas™ 29.7 cm.×7.1 cm K&D module composed of six adjacent cells, each designed to hold mosquitoes and each having a rectangular 3×4 cm floor hole that is opened and closed by a sliding door; (2) a Plexiglas™ six-well 29.7 cm×7.1 cm water water-bath warmed (38° C.) reservoir with six 3×4 cm wells designed to match the sliding-door openings of the K&D module base and to contain 6 mL warmed “artificial blood” wells covered with a collagen membrane; and (3) a 29.7 cm×7.1 cm'0.4 cm Teflon® separator having six rectangular openings like the K&D module. The K&D module was connected to a constant temperature water circulator at 38° C. The cells were covered with an Edicol collagen membrane strip. Nylon organdy strips with ink cell patterns were numbered and randomly treated with five dilutions of the tested chemical in ethanol (ethanol alone as blank control), plus DEET (ca. 10 μg/cm^2) as a positive control. This treated nylon organdy strip was placed on top of the collagen membrane. The upper section of the K & D module with the six cells each containing 5 mosquitoes (5-10 d old, starved for 24 hr before testing) was placed on top of the nylon strip. […] The experiments were allowed to run for 3 minutes, and the number of mosquitoes feeding (biting) in each cell was recorded. […]
# Aedes aegypti [3] = experiment: Y-tube olfactometer behavioral bioassay (spatial repellency); type: in vivo; conditions: for Number of mosquitoes in each arm: Blank / Number of mosquitoes in each arm: Bottom / Number of mosquitoes in each arm: Repellent: Aedes aegypti females, release rate per chemical (1-60 mg/day), 10 min; for Number of mosquitoes in each arm: Repellent: two replicates pooled; for SAI (Spatial Activity Index): Aedes aegypti, (Nc − Nt)/(Nc + Nt), −1 to 1, zero indicating no response
# Procedure: (§2) Aegypti and An. stephensi, and one species of sand fly, P. papatasi. Both the mosquitoes and the sand flies used in the study were from colonies maintained at the Walter Reed Army Institute of Research, Department of Entomology, Silver Spring, Md. This Y-tube bioassay system, equipped with CO2-enriched air (ca. 1 l/min) as an attractant, was made from three clear acrylic tubes (4″ diameter; 12″ length) with symmetrical 120° angles among the three tube arms; and a screen butterfly valve on the top part of the bottom releasing tube. These spatial repellency tests were carried out during 8:00 am-12:00 pm (photophase) time period for Ae. aegypti and 1:00-5:00 pm (shifted scotophase) time period for the species of night-flying mosquitoes and sand fly in a temperature and humidity controlled testing room (23-25° C. and 20-40% RH). Female mosquitoes or sand flies were stored at ˜25-26° C., 50-89% RH, 12:12 hr. (L/D), fed with 10% sucrose solution before testing. The candidate chemical (individual or mixture) dispenser and a blank control were placed in the upper left or right arm of the Y-tube before releasing 25-40, 6 to 10 day-old female mosquitoes (or 3 to 10 day-old sand flies) into the bottom tube via a small hole. After a 30-60 sec acclimation period, the butterfly screen valve (door) on the top of the bottom tube was opened. After 10 min., the valve was closed and the numbers of mosquitoes or sand flies in each arm (including the bottom tube) were counted. In order to minimize the position effect, the same experiment was repeated once with the treatment and blank control arms shifted using a new (clean) Y-tube olfactometer and a new batch of mosquitoes/sand flies. Data from these two replicates were pooled for χ2 goodness of fit test (df=1) between the treatment and blank control.
# Anopheles stephensi [4] = experiment: as above; type: in vivo; conditions: for Number of mosquitoes in each arm: Repellent / Number of mosquitoes in each arm: Blank / Number of mosquitoes in each arm: Bottom: Anopheles stephensi females, 10 min; for Number of mosquitoes in each arm: Repellent: release rate per chemical (1-60 mg/day; β-Caryophyllene 10 mg/day); for Number of mosquitoes in each arm: Blank / Number of mosquitoes in each arm: Bottom: release rate per chemical (β-Caryophyllene 10 mg/day); for SAI (Spatial Activity Index): Anopheles stephensi, β-Caryophyllene 10 mg/day
# Procedure: as §2
# Phlebotomus papatasi = experiment: as above; type: in vivo; conditions: for SAI (Spatial Activity Index): Phlebotomus papatasi; for Number of mosquitoes in each arm: Repellent: Phlebotomus papatasi (sand fly) females, release rate per chemical (1-35 mg/day); for Number of mosquitoes in each arm: Repellent / Number of mosquitoes in each arm: Blank / Number of mosquitoes in each arm: Bottom: 10 min; for Number of mosquitoes in each arm: Blank / Number of mosquitoes in each arm: Bottom: Phlebotomus papatasi females, release rate per chemical
# Procedure: as §2
# Aedes aegypti [5] = experiment: K&D module behavioral bioassay (topical repellency, biting); type: in vivo
# Procedure: as §1
# (§3) Clove essential oil, patchouli oil, and EAD-active potential repellents, β-caryophyllene, isocaryophyllene, (+)-longifolene, and their 1:1:1 mixture, plus α-guaiene, caryophyllene oxide, and a β-caryophyllene ketone, were tested using the six-cell in vitro K&D module system (Klun and Debboun, J. Med. Entomol. 37:177-181 (2000)) loaded with an “artificial blood” (CPDA+ATP) solution on both Ae. aegypti and An. stephensi in a dose-response fashion. The K&D in vitro assay system has three components: (1) a Plexiglas™ 29.7 cm.×7.1 cm K&D module composed of six adjacent cells, each designed to hold mosquitoes and each having a rectangular 3×4 cm floor hole that is opened and closed by a sliding door; (2) a Plexiglas™ six-well 29.7 cm×7.1 cm water water-bath warmed (38° C.) reservoir with six 3×4 cm wells designed to match the sliding-door openings of the K&D module base and to contain 6 mL warmed “artificial blood” wells covered with a collagen membrane; and (3) a 29.7 cm×7.1 cm'0.4 cm Teflon® separator having six rectangular openings like the K&D module. The K&D module was connected to a constant temperature water circulator at 38° C. The cells were covered with an Edicol collagen membrane strip. Nylon organdy strips with ink cell patterns were numbered and randomly treated with […] of the tested chemical in ethanol (ethanol alone as blank control), plus DEET (ca. 10 μg/cm^2) as a positive control. This treated nylon organdy strip was placed on top of the collagen membrane. The upper section of the K & D module with the six cells each containing 5 mosquitoes (5-10 d old, starved for 24 hr before testing) was placed on top of the nylon strip. The doors to the cells were slid open so the mosquitoes could be free to feed on the “artificial blood” via the collagen membrane if they were hungry. The experiments were allowed to run for 3 minutes, and the number of mosquitoes feeding (biting) in each cell was recorded. After each experiment, the nylon and collagen strips were removed. The CPDA+ATP solution was removed and allowed to dry prior to starting the next experiment. The experiments on each chemical and each mosquito species were run three times before the bottom section with circulated water was cleaned prior to use again.
# Anopheles stephensi [6] = experiment: as above; type: in vivo
# Procedure: as §1, §3
# [7] = test system: male false stable fly Muscina stabulans antenna and female mosquito Aedes (Ochlerotatus) increpitus Dyar antenna; experiment: GC-EAD responses of false stable fly and Aedes increpitus to a synthetic mixture; conditions: about 100 ng of each compound, FIG. 5
# Procedure: The GC-EAD responses of the male false stable fly Muscina stabulans antenna and the female mosquito Aedes (Ochlerotatus) increpitus Dyar antenna were tested on a synthetic mixture of linalool and two representative sesquiterpene hydrocarbons, β-caryophyllene and α-humulene, and one sesquiterpene oxide, β-caryophyllene oxide, with about 100 ng of each compound in the mixture.
# The following procedures were employed to test the EAD response of an insect antenna to a repellent compound. The GC-EAD technique provides an efficient tool for screening behaviorally active repellents. Several synthetic mixtures of potential insect repellent candidates, mostly sesquiterpene hydrocarbons and derivatives, were analyzed in splitless mode using a Varian CP-3800 GC equipped with a polar column (Innowax; 1.0 μm film thickness, 30 m×0.53 mm ID; J & W Scientific), and a 1:1 effluent splitter that allowed simultaneous flame ionization detection (FID) and EAD of the separated volatile compounds. Helium was used as the carrier gas, and the injector temperature was 220° C. The column temperature was 50° C. for 2 min, rising to 240° C. at 10° C./min, then held for 10 min. The outlet for the EAD was held in a humidified air stream flowing at 0.5 liter/min. over an antennal preparation. A glass capillary indifferent electrode filled with Beadle-Ephrussi Ringer, and grounded via a silver wire, was inserted into the severed insect's head with the antennae. A similar recording electrode connected to a high-impedance DC amplifier with automatic baseline drift compensation was placed in contact with the distal end of one antenna (Zhang et al., Chemoecology, 10:69-80 (2000)). The antennal signals were stored and analyzed on a PC equipped with a serial IDAC interface box and the program EAD ver. 2.5 (Syntech, Hilversum, The Netherlands). The compound 1-octen-3-ol (known attractant for many flies and mosquitoes) was included in most of the synthetic mixtures, as a positive control. The results of the experiments are shown in FIGS. 1-10 and described above.
# [8] = 10 μg/cm^2, DEET values are the positive control run with the chemical
Compound,GC-EAD antennal activity [1],"topical repellency / feeding deterrence, in words [2]",Number of mosquitoes in each arm: Blank (Aedes aegypti [3]),Number of mosquitoes in each arm: Bottom (Aedes aegypti [3]),Number of mosquitoes in each arm: Repellent (Aedes aegypti [3]),SAI (Spatial Activity Index) (Aedes aegypti [3]),Number of mosquitoes in each arm: Repellent (Anopheles stephensi [4]),Number of mosquitoes in each arm: Blank (Anopheles stephensi [4]),Number of mosquitoes in each arm: Bottom (Anopheles stephensi [4]),SAI (Spatial Activity Index) (Anopheles stephensi [4]),SAI (Spatial Activity Index) (Phlebotomus papatasi),Number of mosquitoes in each arm: Repellent (Phlebotomus papatasi),Number of mosquitoes in each arm: Blank (Phlebotomus papatasi),Number of mosquitoes in each arm: Bottom (Phlebotomus papatasi),"% of biting (±SE) (N = 3) (Aedes aegypti [5]; 1 μg/cm^2, 3 minutes)",% of biting (±SE) (N = 3) (Aedes aegypti [5]; 5 μg/cm^2),% of biting (±SE) (N = 3) (Aedes aegypti [5]; [8]),% of biting (±SE) (N = 3) (Aedes aegypti [5]; 50 μg/cm^2) [a %],"% of biting (±SE) (N = 3) (Anopheles stephensi [6]; 1 μg/cm^2, 3 minutes)",% of biting (±SE) (N = 3) (Anopheles stephensi [6]; 5 μg/cm^2) [bc %],other results
"CCN(CC)C(=O)c1cccc(C)c1 [DEET, N,N-diethyl-m-toluamide, reference compound]",does not appear to have elicited antennal activity,significantly inhibited/blocked the feeding (biting) activity,,,,,,,,,,,,,,,,,,,
"C/C1=C\CCC(=O)[C@H]2CC(C)(C)[C@@H]2CC1 [β-Caryophyllene Ketone, β-caryophyllene ketone]",,even stronger topical repellency,37,20,28,0.14,10,18,32,0.29,0.18,20,29,23,20 ± 0bc %,13 ± 7ab %,7 ± 7ab %,0 ± 0,47 ± 7cd %,33 ± 7,% of biting (±SE) (N = 3) (Anopheles stephensi [6]; [8]): 20 ± 12ab %; % of biting (±SE) (N = 3) (Anopheles stephensi [6]; 50 μg/cm^2): 0 ± 0a %
"C=C1CC[C@H]2O[C@]2(C)CC[C@@H]2[C@@H]1CC2(C)C [β-Caryophyllene Oxide, β-Caryophyllene oxide]",antennally active,even stronger topical repellency,38,26,15,0.43,15,24,23,0.23,0.91,4,83,5,27 ± 7b %,27 ± 7b %,0 ± 0a %,0 ± 0,27 ± 13abc %,47 ± 7,GC-EAD antennal activity [7]: active on at least one of the insects tested; % of biting (±SE) (N = 3) (Anopheles stephensi [6]; [8]): 20 ± 12ab %; % of biting (±SE) (N = 3) (Anopheles stephensi [6]; 50 μg/cm^2): 0 ± 0a %
